US8404718B2, “Combinations of pyrazole kinase inhibitors” (Astex Therapeutics Limited, priority 2005, dated 2013)

How the values were obtained:
GSK3-β = biological target: T1, GSK3-β (Homo sapiens, UniProt P49841); experiment: Inhibitory activity against glycogen synthase kinase-3 (Protocol A or B); format: biochemical; settings: either Protocol A or Protocol B; read-out: IC50 in the GSK3-B assays
T1 construct: purchased Upstate Discovery
Description: The activities of the compounds of the invention as inhibitors of GSK-3 were determined using either Protocol A or Protocol B below.
The reaction is allowed to proceed for 3 hours before being stopped with an excess of ortho-phosphoric acid (5 μl at 2%). The filtration procedure is as for Activated CDK2/CyclinA assay above.
GSK3β (human) is diluted to a 10× working stock in 50 mM Tris pH 7.5, 0.1 mM EGTA, 0.1 mM sodium vanadate, 0.1% β-mercaptoethanol, 1 mg/ml BSA.
(specific activity approx 500 cpm/pmol, concentration as required).

[1] = system: human colon carcinoma cell line HCT 116; experiment: Anti-proliferative activity, Alamar Blue assay; format: cell-based; settings: 72 hours compound incubation, read-out: IC50, inhibition of cell growth, HCT 116
Description: The anti-proliferative activities of the combinations of the invention, as well as the individual components of the combinations, are determined by measuring the ability of the compounds to inhibition of cell growth in a number of cell lines. Inhibition of cell growth is measured using the Alamar Blue assay (Nociari, M. M, Shalev, A., Benias, P., Russo, C. Journal of Immunological Methods 1998, 213, 157-167). The method is based on the ability of viable cells to reduce resazurin to its fluorescent product resorufin. For each proliferation assay cells are plated onto 96 well plates and allowed to recover for 16 hours prior to the addition of inhibitor compounds for a further 72 hours. At the end of the incubation period 10% (v/v) Alamar Blue is added and incubated for a further 6 hours prior to determination of fluorescent product at […]. In the case of the non-proliferating cell assay cells are maintained at confluence for 96 hour prior to the addition of inhibitor compounds for a further 72 hours. The number of viable cells is determined by Alamar Blue assay as before. All cell lines are obtained from ECACC (European Collection of cell Cultures).

Activated CDK2/CyclinA = Activated CDK2/CyclinA (Homo sapiens, UniProt P24941); experiment: Activated CDK2/CyclinA kinase inhibitory activity assay (IC50), Example 250A; format: biochemical
Description: Compounds of the invention were tested for kinase inhibitory activity using the following protocol.
The reaction is allowed to proceed for 2 to 4 hours before being stopped with an excess of ortho-phosphoric acid (5 μl at 2%).
γ^33P-ATP which remains unincorporated into the histone H1 is separated from phosphorylated histone H1 on a Millipore MAPH filter plate. The wells of the MAPH plate are wetted with 0.5% orthophosphoric acid, and then the results of the reaction are filtered with a Millipore vacuum filtration unit through the wells. Following filtration, the residue is washed twice with 200 μl of 0.5% orthophosphoric acid. Once the filters have dried, 20 μl of Microscint 20 scintillant is added, and then counted on a Packard Topcount for 30 seconds.

T1 sequence (P49841 whole entry): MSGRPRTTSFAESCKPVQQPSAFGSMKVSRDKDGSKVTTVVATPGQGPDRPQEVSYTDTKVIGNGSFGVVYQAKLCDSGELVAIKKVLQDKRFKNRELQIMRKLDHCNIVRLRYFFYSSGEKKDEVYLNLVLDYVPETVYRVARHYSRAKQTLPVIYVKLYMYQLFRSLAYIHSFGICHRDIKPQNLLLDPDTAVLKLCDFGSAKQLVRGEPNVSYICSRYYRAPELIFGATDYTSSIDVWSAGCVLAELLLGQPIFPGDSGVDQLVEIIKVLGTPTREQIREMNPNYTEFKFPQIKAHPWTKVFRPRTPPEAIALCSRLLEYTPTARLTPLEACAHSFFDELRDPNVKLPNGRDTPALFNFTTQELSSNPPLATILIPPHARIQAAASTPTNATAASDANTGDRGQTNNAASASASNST

| IC50 (GSK3-β) | IC50 [1] | IC50 (Activated CDK2/CyclinA) | Compound |
| --- | --- | --- | --- |
| < 10 µM |  |  | O=C(NCCN1CCOCC1)c1n[nH]cc1NC(=O)c1c(F)cccc1F [Example 84] |
| < 10 µM | < 20 µM |  | O=C(NC1CCN(Cc2ccccc2)CC1)c1n[nH]cc1NC(=O)c1c(F)cccc1F [Example 86] |
| < 10 µM | < 20 µM |  | CN1CCC(NC(=O)c2n[nH]cc2NC(=O)c2c(F)cccc2F)CC1 [Example 53, 4-(2,6-Difluoro-benzoylamino)-1H-pyrazole-3-carboxylic acid (1-methyl-piperidin-4-yl)-amide] |
|  | < 20 µM | < 20 µM | O=C(NC1CCC(CO)CC1)c1n[nH]cc1NC(=O)c1c(F)cccc1F (stereo not shown) [Example 120] |
|  | < 20 µM | < 20 µM | O=C(N[C@H]1CC[C@H](N2CCS(=O)(=O)CC2)CC1)c1n[nH]cc1NC(=O)c1c(F)cccc1F [Example 132] |
|  | < 20 µM | < 20 µM | O=C(N[C@H]1CC[C@H](NC2CCOCC2)CC1)c1n[nH]cc1NC(=O)c1c(F)cccc1F [Example 116] |
|  | < 20 µM | < 20 µM | CO[C@H]1CC[C@H](NC(=O)c2n[nH]cc2NC(=O)c2c(F)cccc2F)CC1 [Example 137] |
|  | < 20 µM | < 20 µM | O=C(NCC1CCCO1)c1n[nH]cc1NC(=O)c1c(F)cccc1F (stereo not shown) [Example 100] |
|  | < 20 µM | < 20 µM | NC[C@H]1CC[C@H](NC(=O)c2n[nH]cc2NC(=O)c2c(F)cccc2F)CC1 [Example 163] |
|  | < 20 µM | < 20 µM | O=C(NC1CCC(N2CCSCC2)CC1)c1n[nH]cc1NC(=O)c1c(F)cccc1F (stereo not shown) [Example 121] |
|  | < 20 µM | < 20 µM | O=C(N[C@H]1CC[C@H](O)CC1)c1n[nH]cc1NC(=O)c1c(F)cccc1Cl [Example 155] |
|  | < 100 µM | < 20 µM | O=C(Nc1c[nH]nc1C(=O)N[C@H]1CC[C@H](O)CC1)Nc1c(F)cccc1F [Example 160] |
|  | < 20 µM | < 20 µM | CN1CCC(NC(=O)c2n[nH]cc2NC(=O)c2cccc(Cl)c2Cl)CC1 [Example 213] |
|  | < 20 µM | < 20 µM | O=C(NC1CCN(c2cccc(Cl)n2)CC1)c1n[nH]cc1NC(=O)c1c(F)cccc1F [Example 115] |
|  | < 20 µM | < 20 µM | O=C1CC[C@H](NC(=O)c2n[nH]cc2NC(=O)c2c(F)cccc2F)CN1 [Example 139] |
|  | < 20 µM | < 20 µM | O=C(N[C@H]1CC[C@H](N2CCOCC2)CC1)c1n[nH]cc1NC(=O)c1c(F)cccc1F [Example 167] |
|  | < 20 µM | < 20 µM | CN1CCN(c2cc(F)cc(C(=O)Nc3c[nH]nc3C(=O)NC3CCCCC3)c2)CC1 [Example 215] |
|  | < 20 µM | < 20 µM | CN1CCN([C@H]2CC[C@@H](NC(=O)c3n[nH]cc3NC(=O)c3c(F)cccc3F)CC2)CC1 [Example 118] |
|  | < 20 µM | < 20 µM | O=C(NC1CCN(c2ncccn2)CC1)c1n[nH]cc1NC(=O)c1c(F)cccc1F [Example 110] |
|  | < 20 µM | < 20 µM | O=C(NC1CCN(c2ccccn2)CC1)c1n[nH]cc1NC(=O)c1c(F)cccc1F [Example 112] |
|  | < 20 µM | < 20 µM | O=C(NCC1CCNCC1)c1n[nH]cc1NC(=O)c1c(F)cccc1F [Example 111] |
|  | < 20 µM | < 20 µM | O=C(N[C@H]1CCCNC1)c1n[nH]cc1NC(=O)c1c(F)cccc1F [Example 152] |
|  | < 20 µM | < 20 µM | C[N+]1([O-])CCC(NC(=O)c2n[nH]cc2NC(=O)c2c(F)cccc2F)CC1 (stereo not shown) [Example 162] |
|  | < 20 µM | < 20 µM | O=C(NC1CCN(CC(F)(F)F)CC1)c1n[nH]cc1NC(=O)c1c(F)cccc1F [Example 114] |

Second part, the compound before the results:

| Compound | IC50 (GSK3-β) | IC50 [1] | IC50 (Activated CDK2/CyclinA) |
| --- | --- | --- | --- |
| O=C(Nc1c[nH]nc1C(=O)Nc1ccc(F)cc1)c1ccccc1 [Example 26, 4-Benzoylamino-1H-pyrazole-3-carboxylic acid (4-fluoro-phenyl)-amide] | < 10 µM | < 20 µM |  |
| O=C(Nc1c[nH]nc1C(=O)NC1CCNCC1)c1ccc(F)cc1 [Example 141] | < 10 µM | < 20 µM |  |
| Cc1onc(-c2ccccc2)c1C(=O)Nc1c[nH]nc1C(=O)NC1CCNCC1 [Example 146] | < 10 µM |  |  |
| Cc1oc(CN2CCOCC2)cc1C(=O)Nc1c[nH]nc1C(=O)NC1CCC(C(C)(C)C)CC1 (stereo not shown) [Example 138] | < 10 µM | < 20 µM |  |
| CC(C)(C)C1CCC(NC(=O)c2n[nH]cc2NC(=O)c2ccc(Cl)cc2)CC1 (stereo not shown) [Example 126] | < 10 µM |  |  |
| CC(C)(C)C1CCC(NC(=O)c2n[nH]cc2NC(=O)c2cc(F)cc(F)c2)CC1 (stereo not shown) [Example 129] | < 10 µM |  |  |
| O=C(NCc1ccco1)c1n[nH]cc1NC(=O)c1c(F)cccc1F [Example 107] |  | < 20 µM | < 20 µM |
| CC(NC(=O)c1n[nH]cc1NC(=O)c1c(F)cccc1F)c1ccccc1 (stereo not shown) [Example 108] |  | < 100 µM | < 20 µM |
| O=C(N[C@H]1CCCNC1)c1n[nH]cc1NC(=O)c1c(Cl)cccc1Cl [Example 208] |  | < 20 µM | < 20 µM |
| CC(C)(C)C1CCC(NC(=O)c2n[nH]cc2NC(=O)c2ccccc2)CC1 (stereo not shown) [Example 127] | < 10 µM |  |  |
| COCCN1CCC(NC(=O)c2n[nH]cc2NC(=O)c2c(Cl)cccc2Cl)CC1 [Example 209] |  | < 20 µM | < 20 µM |
| CN1CCC(NC(=O)c2n[nH]cc2NC(=O)c2ccccc2Cl)CC1 [Example 211] |  | < 20 µM | < 20 µM |
| O=C(Nc1c[nH]nc1C(=O)NC1CCNCC1)c1ccccc1 [Example 140] | < 10 µM | < 20 µM |  |
| COc1ccccc1C(=O)Nc1c[nH]nc1C(=O)N[C@H]1CC[C@H](O)CC1 [Example 153] |  | < 20 µM | < 20 µM |
| O=C(Nc1c[nH]nc1C(=O)NC1CCNCC1)c1ccccc1OCc1ccccc1 [Example 200] |  | < 20 µM | < 20 µM |
| O=C(Nc1c[nH]nc1C(=O)NC1CCNCC1)c1ccccc1OC(F)(F)F [Example 196] |  | < 20 µM | < 20 µM |
| COc1ccccc1CNC(=O)c1n[nH]cc1NC(=O)c1c(F)cccc1F [Example 96] |  | < 20 µM | < 20 µM |
| CN1CCC(NC(=O)c2n[nH]cc2NC(=O)c2ccccc2OC(C)(C)C)CC1 [Example 203] |  | < 20 µM | < 20 µM |
| CC(C)(C)C1CCC(NC(=O)c2n[nH]cc2NC(=O)c2ccc(OC(F)F)cc2)CC1 (stereo not shown) [Example 128] | < 10 µM |  |  |
| O=C(NCc1ccncc1)c1n[nH]cc1NC(=O)c1c(F)cccc1F [Example 104] |  | < 20 µM | < 20 µM |
| Cc1ccc(C(=O)Nc2c[nH]nc2C(=O)NC2CCN(C)CC2)cc1 [Example 189] |  | < 20 µM | < 20 µM |
| O=C(NC1CCNCC1)c1n[nH]cc1NC(=O)c1c(Cl)cncc1Cl [Example 194] |  | < 20 µM | < 20 µM |
| Cc1cc(CNC(=O)c2n[nH]cc2NC(=O)c2c(F)cccc2F)no1 [Example 101] |  | < 20 µM | < 20 µM |
| CC(C)(C)C1CCC(NC(=O)c2n[nH]cc2NC(=O)c2ccc(F)cc2)CC1 (stereo not shown) [Example 122] | < 10 µM |  |  |
| COc1ccc(F)cc1C(=O)Nc1c[nH]nc1C(=O)NC1CCN(C)CC1 [Example 204] |  | < 20 µM | < 20 µM |
